Measured values as given in patent US9499550B2 (BRISTOL-MYERS SQUIBB COMPANY, priority 2012, dated 2016).

Experiments:
[1] = test system: HCV genotype 1a (H77 strain) replicon in HUH-7 cells; assay: HCV replicon luciferase reporter assay, genotype 1a; assay type: cell-based; settings: Hepatitis C virus, Huh-7, 72 h, HCV genotype 1a replicon luciferase, 3 days incubation, read-out: LE_1a (EC50, range)
Procedure, shortened: (§1)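 Replicon inhibition for both genotypes was measured as Renilla luciferase signal (EnduRen, 7.5 μM final, 2 h) after 3-day, 37° C exposure of replicon-bearing HUH-7 cells in 4% FCS DMEM, 0.5% DMSO. The 1b construct carries S1179I; the 1a H77 construct carries P1496L and S2204I. Twenty-point, 3-fold dilutions were fitted four-parametrically for EC50, and CC50 was taken from multiplexed Cell Titer-Blue.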

[2] = test system: HCV genotype 1b (Con1) replicon in HUH-7 cells; assay: HCV replicon luciferase reporter assay, genotype 1b; assay type: cell-based; settings: Hepatitis C virus, Huh-7, 72 h, HCV genotype 1b replicon luciferase, 3 days incubation, read-out: LE_1b (EC50, range)
Procedure, shortened: as §1

HCV = settings: combination therapy, HCV infected patients; cited from earlier work

Compound | EC50 [1] | EC50 [2] | sustained efficacy (HCV)
CCOc1cc2ccccc2c(O[C@@H]2C[C@H]3C(=O)N[C@]4(C(=O)NS(=O)(=O)C5(C)CC5)C[C@H]4/C=C\CC[C@H](C)C[C@@H](C)[C@H](NC(=O)OC(C)(C)C(F)(F)F)C(=O)N3C2)n1 [Compound 6099, 1,1,1-trifluoro-2-methylpropan-2-yl((2R,6S,7R,9S,13aS,14aR,16aS,Z)-2-((3-ethoxyisoquinolin-1-yl)oxy)-7,9-dimethyl-14a-(((1-methylcyclopropyl)sulfonyl)carbamoyl)-5,16-dioxo-1,2,3,5,6,7,8,9,10,11,13a,14,14a,15,16,16a-hexadecahydrocyclopropa[e]pyrrolo[1,2-a][1,4]diazacyclopentadecin-6-yl)carbamate] | 1.01 to 5 nM | 1.01 to 5 nM | –
CCOc1cc2ccccc2c(O[C@@H]2C[C@H]3C(=O)N[C@]4(C(=O)NS(=O)(=O)C5(C)CC5)C[C@H]4/C=C\CC[C@@H](C)C[C@@H](C)[C@H](NC(=O)OC(C)(C)C(F)(F)F)C(=O)N3C2)n1 [Compound 6100, 1,1,1-trifluoro-2-methylpropan-2-yl((2R,6S,7R,9R,13aS,14aR,16aS,Z)-2-((3-ethoxyisoquinolin-1-yl)oxy)-7,9-dimethyl-14a-(((1-methylcyclopropyl)sulfonyl)carbamoyl)-5,16-dioxo-1,2,3,5,6,7,8,9,10,11,13a,14,14a,15,16,16a-hexadecahydrocyclopropa[e]pyrrolo[1,2-a][1,4]diazacyclopentadecin-6-yl)carbamate] | 1.01 to 5 nM | 0.1 to 0.5 nM | –
CCOc1cc2ccccc2c(O[C@@H]2C[C@H]3C(=O)N[C@]4(C(=O)NS(=O)(=O)C5(C)CC5)C[C@H]4/C=C\CC[C@@H](C)C[C@@H](C)[C@H](NC(=O)OC(C)(C)C(C)(F)F)C(=O)N3C2)n1 [Compound 6102, 3,3-difluoro-2-methylbutan-2-yl((2R,6S,7R,9R,13aS,14aR,16aS,Z)-2-((3-ethoxyisoquinolin-1-yl)oxy)-7,9-dimethyl-14a-(((1-methylcyclopropyl)sulfonyl)carbamoyl)-5,16-dioxo-1,2,3,5,6,7,8,9,10,11,13a,14,14a,15,16,16a-hexadecahydrocyclopropa[e]pyrrolo[1,2-a][1,4]diazacyclopentadecin-6-yl)carbamate] | 0.51 to 1 nM | 0.1 to 0.5 nM | –
CC(C)Oc1cc2ccccc2c(O[C@@H]2C[C@H]3C(=O)N[C@]4(C(=O)NS(=O)(=O)C5(C)CC5)C[C@H]4/C=C\CC[C@@H](C)C[C@@H](C)[C@H](NC(=O)OC(C)(C)C(F)(F)F)C(=O)N3C2)n1 [Compound 6104, 1,1,1-trifluoro-2-methylpropan-2-yl((2R,6S,7R,9R,13aS,14aR,16aS,Z)-2-((3-isopropoxyisoquinolin-1-yl)oxy)-7,9-dimethyl-14a-(((1-methylcyclopropyl)sulfonyl)carbamoyl)-5,16-dioxo-1,2,3,5,6,7,8,9,10,11,13a,14,14a,15,16,16a-hexadecahydrocyclopropa[e]pyrrolo[1,2-a][1,4]diazacyclopentadecin-6-yl)carbamate] | 1.01 to 5 nM | 0.51 to 1 nM | –
CC(C)Oc1cc2ccccc2c(O[C@@H]2C[C@H]3C(=O)N[C@]4(C(=O)NS(=O)(=O)C5(C)CC5)C[C@H]4/C=C\CC[C@H](C)C[C@@H](C)[C@H](NC(=O)OC(C)(C)C(C)(F)F)C(=O)N3C2)n1 [Compound 6105, 3,3-difluoro-2-methylbutan-2-yl((2R,6S,7R,9S,13aS,14aR,16aS,Z)-2-((3-isopropoxyisoquinolin-1-yl)oxy)-7,9-dimethyl-14a-(((1-methylcyclopropyl)sulfonyl)carbamoyl)-5,16-dioxo-1,2,3,5,6,7,8,9,10,11,13a,14,14a,15,16,16a-hexadecahydrocyclopropa[e]pyrrolo[1,2-a][1,4]diazacyclopentadecin-6-yl)carbamate] | 5.01 to 35 nM | 1.01 to 5 nM | –
CC(C)Oc1cc2ccccc2c(O[C@@H]2C[C@H]3C(=O)N[C@]4(C(=O)NS(=O)(=O)C5(C)CC5)C[C@H]4/C=C\CC[C@@H](C)C[C@@H](C)[C@H](NC(=O)OC(C)(C)C(C)(F)F)C(=O)N3C2)n1 [Compound 6106, 3,3-difluoro-2-methylbutan-2-yl((2R,6S,7R,9R,13aS,14aR,16aS,Z)-2-((3-isopropoxyisoquinolin-1-yl)oxy)-7,9-dimethyl-14a-(((1-methylcyclopropyl)sulfonyl)carbamoyl)-5,16-dioxo-1,2,3,5,6,7,8,9,10,11,13a,14,14a,15,16,16a-hexadecahydrocyclopropa[e]pyrrolo[1,2-a][1,4]diazacyclopentadecin-6-yl)carbamate] | 1.01 to 5 nM | 0.1 to 0.5 nM | –
CCOc1cc2ccccc2c(O[C@@H]2C[C@H]3C(=O)N[C@]4(C(=O)NS(=O)(=O)C5(CF)CC5)C[C@H]4/C=C\CC[C@@H](C)C[C@@H](C)[C@H](NC(=O)OC(C)(C)C)C(=O)N3C2)n1 [Compound 6108, tert-butyl ((2R,6S,7R,9R,13aS,14aR,16aS,Z)-2-((3-ethoxyisoquinolin-1-yl)oxy)-14a-(((1-(fluoromethyl)cyclopropyl)sulfonyl)carbamoyl)-7,9-dimethyl-5,16-dioxo-1,2,3,5,6,7,8,9,10,11,13a,14,14a,15,16,16a-hexadecahydrocyclopropa[e]pyrrolo[1,2-a][1,4]diazacyclopentadecin-6-yl)carbamate] | 0.51 to 1 nM | 0.1 to 0.5 nM | –
CC(C)Oc1cc2ccccc2c(O[C@@H]2C[C@H]3C(=O)N[C@]4(C(=O)NS(=O)(=O)C5(CF)CC5)C[C@H]4/C=C\CC[C@@H](C)C[C@@H](C)[C@H](NC(=O)OC(C)(C)C)C(=O)N3C2)n1 [Compound 6110, tert-butyl ((2R,6S,7R,9R,13aS,14aR,16aS,Z)-14a-(((1-(fluoromethyl)cyclopropyl)sulfonyl)carbamoyl)-2-((3-isopropoxyisoquinolin-1-yl)oxy)-7,9-dimethyl-5,16-dioxo-1,2,3,5,6,7,8,9,10,11,13a,14,14a,15,16,16a-hexadecahydrocyclopropa[e]pyrrolo[1,2-a][1,4]diazacyclopentadecin-6-yl)carbamate] | 1.01 to 5 nM | 0.51 to 1 nM | –
CCOc1cc2ccccc2c(O[C@@H]2C[C@H]3C(=O)N[C@]4(C(=O)NS(=O)(=O)C5(CF)CC5)C[C@H]4/C=C\CC[C@@H](C)C[C@@H](C)[C@H](NC(=O)OC(C)(C)C(F)(F)F)C(=O)N3C2)n1 [Compound 6112, 1,1,1-trifluoro-2-methylpropan-2-yl((2R,6S,7R,9R,13aS,14aR,16aS,Z)-2-((3-ethoxyisoquinolin-1-yl)oxy)-14a-(((1-(fluoromethyl)cyclopropyl)sulfonyl)carbamoyl)-7,9-dimethyl-5,16-dioxo-1,2,3,5,6,7,8,9,10,11,13a,14,14a,15,16,16a-hexadecahydrocyclopropa[e]pyrrolo[1,2-a][1,4]diazacyclopentadecin-6-yl)carbamate] | 1.01 to 5 nM | 0.51 to 1 nM | –
CCOc1cc2ccccc2c(O[C@@H]2C[C@H]3C(=O)N[C@]4(C(=O)NS(=O)(=O)C5(CF)CC5)C[C@H]4/C=C\CC[C@@H](C)C[C@@H](C)[C@H](NC(=O)OC(C)(C)C(C)(F)F)C(=O)N3C2)n1 [Compound 6114, 3,3-difluoro-2-methylbutan-2-yl((2R,6S,7R,9R,13aS,14aR,16aS,Z)-2-((3-ethoxyisoquinolin-1-yl)oxy)-14a-(((1-(fluoromethyl)cyclopropyl)sulfonyl)carbamoyl)-7,9-dimethyl-5,16-dioxo-1,2,3,5,6,7,8,9,10,11,13a,14,14a,15,16,16a-hexadecahydrocyclopropa[e]pyrrolo[1,2-a][1,4]diazacyclopentadecin-6-yl)carbamate] | 1.01 to 5 nM | 0.1 to 0.5 nM | –
CC(C)Oc1cc2ccccc2c(O[C@@H]2C[C@H]3C(=O)N[C@]4(C(=O)NS(=O)(=O)C5(CF)CC5)C[C@H]4/C=C\CC[C@@H](C)C[C@@H](C)[C@H](NC(=O)OC(C)(C)C(F)(F)F)C(=O)N3C2)n1 [Compound 6116, 1,1,1-trifluoro-2-methylpropan-2-yl((2R,6S,7R,9R,13aS,14aR,16aS,Z)-14a-(((1-(fluoromethyl)cyclopropyl)sulfonyl)carbamoyl)-2-((3-isopropoxyisoquinolin-1-yl)oxy)-7,9-dimethyl-5,16-dioxo-1,2,3,5,6,7,8,9,10,11,13a,14,14a,15,16,16a-hexadecahydrocyclopropa[e]pyrrolo[1,2-a][1,4]diazacyclopentadecin-6-yl)carbamate] | 1.01 to 5 nM | 1.01 to 5 nM | –
CC(C)Oc1cc2ccccc2c(O[C@@H]2C[C@H]3C(=O)N[C@]4(C(=O)NS(=O)(=O)C5(CF)CC5)C[C@H]4/C=C\CC[C@@H](C)C[C@@H](C)[C@H](NC(=O)OC(C)(C)C(C)(F)F)C(=O)N3C2)n1 [Compound 6118, 3,3-difluoro-2-methylbutan-2-yl((2R,6S,7R,9R,13aS,14aR,16aS,Z)-14a-(((1-(fluoromethyl)cyclopropyl)sulfonyl)carbamoyl)-2-((3-isopropoxyisoquinolin-1-yl)oxy)-7,9-dimethyl-5,16-dioxo-1,2,3,5,6,7,8,9,10,11,13a,14,14a,15,16,16a-hexadecahydrocyclopropa[e]pyrrolo[1,2-a][1,4]diazacyclopentadecin-6-yl)carbamate] | 1.01 to 5 nM | 1.01 to 5 nM | –
alpha-interferon and ribavirin | – | – | 40 % of patients
